“And” between values parts separate entries of the source, which are not always exact repeats. Equal values may be shown once. Where a name gives a salt, the structure may show the parent alone. Square brackets hold non-standard residues; d marks the D form. Peptide text beside a SMILES is read from it. * marks the point of attachment. dPhe(4-NHCONH2) = NC(=O)Nc1ccc(C[C@@H](N)C(=O)O)cc1; Dihydroorotyl(S) = O=C1C[C@@H](C(=O)*)NC(=O)N1; dPhe(4-Cl) = N[C@H](Cc1ccc(Cl)cc1)C(=O)O; Phe(4-NH2) = Nc1ccc(C[C@H](N)C(=O)O)cc1; d2Nal = N[C@H](Cc1ccc2ccccc2c1)C(=O)O; Lys(iPr) = CC(C)NCCCC[C@H](N)C(=O)O; d3Pal = N[C@H](Cc1cccnc1)C(=O)O
How the values were obtained:
SARS-CoV-2 = test: microbe, parasite or virus in culture; assay type: functional, organism-based, Chlorocebus sabaeus, Vero C1008
in vitro = conditions: chlorocebus sabaeus
[1] = Severe acute respiratory syndrome coronavirus 2, Vero C1008, 48 h
[2] = VERO-E6 cells (Vero C1008), uninfected, CC50

SMILES | IC50 (SARS-CoV-2; [1]) [µM] | CC50 at 48 h (in vitro; [2]) [µM] | IC50 (SARS-CoV-2; vero c1008) | CC50 at 48 h (in vitro; vero c1008, CC50) [µM]
C=CC(=O)N1CCC(Oc2cc3c(Nc4ccc(Cl)c(Cl)c4F)ncnc3cc2OC)CC1 [POZIOTINIB] | > 33 | 11.5 |  | 
CN1[C@@H]2CC[C@H]1C[C@@H](OC(=O)c1cc(Cl)cc(Cl)c1)C2 [BEMESETRON] | > 33 | 0.02 |  | 
O=C(c1ccc(OCCN2CCCCC2)cc1)c1c(-c2ccc(O)cc2)sc2cc(O)ccc12 [RALOXIFENE HYDROCHLORIDE] | 15.4 | > 33 |  | 
COC(=O)c1ccccc1-c1c2ccc(=N)cc-2oc2cc(N)ccc12 [RHODAMINE123] | 0.8 | > 33 |  | 
COc1c(C)c2c(c(O)c1C/C=C(\C)CCC(=O)O)C(=O)OC2 [MYCOPHENOLIC ACID] |  |  | 3.43 µM and 11.1 µM and > 33 µM | 
C/C(=C\c1ccc(C(=O)O)cc1)c1ccc2c(c1)C(C)(C)CCC2(C)C | > 33 | 4.07 |  | 
CC(C)n1cnc2c(NCCc3ccc(O)cc3)nc(-c3csc4ccccc34)nc21 | > 33 | 12.6 |  | 
CC1=NN(c2ccc(C)c(C)c2)C(=O)/C1=N\Nc1cccc(-c2cccc(C(=O)O)c2)c1O [ELTROMBOPAG] | > 33 | 3.26 |  | 
Cc1ncc(NC(=O)c2ccc(CN3CCN(C)CC3)c(C(F)(F)F)c2)cc1Nc1nccc(-c2cccnc2)n1 [FLUMATINIB] | > 33 | > 33 |  | 
C#CCC(Cc1cnc2nc(N)nc(N)c2n1)c1ccc(C(=O)N[C@@H](CCC(=O)O)C(=O)O)cc1 (some centres not stated) [PRALATREXATE] | 0.06 |  |  | 
COc1cc(/C=C2\SC(=O)NC2=O)ccc1Oc1ccc(C#N)cc1C(F)(F)F | > 33 | 3.33 |  | 
CN(Cc1cnc2nc(N)nc(N)c2n1)c1ccc(C(=O)N[C@@H](CCC(=O)O)C(=O)O)cc1 [METHOTREXATE] | 0.05 | 0.05 |  | 
CN1CCN(C2CCN(C(=O)Nc3cc(Oc4ccc(NC(=O)C5(C(=O)Nc6ccc(F)cc6)CC5)c(F)c4)ccn3)CC2)CC1 [GOLVATINIB] | 5.89 | > 33 |  | 
C/C=C/C[C@@H](C)C(=O)[C@H]1C(=O)N[C@@H](C(C)C)C(=O)N(C)CC(=O)N(C)[C@@H](CC(C)C)C(=O)N[C@@H](C(C)C)C(=O)N(C)[C@@H](CC(C)C)C(=O)N[C@@H](C)C(=O)N[C@H](C)C(=O)N(C)[C@@H](CC(C)C)C(=O)N(C)[C@@H](CC(C)C)C(=O)N(C)[C@@H](C(C)C)C(=O)N1C [VALSPODAR] | > 33 | 13.4 |  | 
CC(C)c1cccc2c(-c3ccccc3)cc(-c3ccc(-c4ccc(C(=O)O)cc4)[nH]3)nc12 | > 33 | > 33 |  | 
c1ccc(-c2ccc(CNc3nc(-c4ccccn4)nnc3-c3ccccc3)cc2)cc1 | 31.9 | 0.02 |  | 
CCN(CC)c1ccc2cc(-c3nc4ccccc4[nH]3)c(=O)oc2c1 | 0.36 | > 33 |  | 
C[C@H]1Cc2c([nH]c3cc(Cl)c(F)cc23)[C@@]2(N1)C(=O)Nc1ccc(Cl)cc12 [CIPARGAMIN] | > 33 | > 33 |  | 
Cc1cc(C)c2c(c1)[C@@H](N(Cc1cc(C(F)(F)F)cc(C(F)(F)F)c1)c1nnn(C)n1)CCCN2C[C@H]1CC[C@H](C(=O)O)CC1 [EVACETRAPIB] | > 33 | > 33 |  | 
CCc1c(-c2ccc3[nH]ncc3c2)cnc(N)c1-c1ccc(O)cc1 | > 33 | > 33 |  | 

SMILES | IC50 (SARS-CoV-2; [1]) [µM] | CC50 at 48 h (in vitro; [2]) [µM] | IC50 (SARS-CoV-2; vero c1008) | CC50 at 48 h (in vitro; vero c1008, CC50) [µM]
O=C1OC2(c3ccc(O)cc3Oc3cc(O)ccc32)c2ccccc21 [FLUORESCEIN] | 0.67 | > 33 |  | 
CCCCn1c(NC(=O)c2cccs2)c(C#N)c2nc3ccccc3nc21 | 19.7 |  |  | 
CC(C)C[C@H](NC(=O)CNC(=O)c1cc(Cl)ccc1Cl)B(O)O [IXAZOMIB] | > 33 | 2.7 |  | 
CCN(CC)CCCCNc1ncc2cc(-c3c(Cl)cccc3Cl)c(NC(=O)NC(C)(C)C)nc2n1 | > 33 | 12.7 |  | 
O=C(Nc1ccc([N+](=O)[O-])cc1Cl)c1cc(Cl)ccc1O [NICLOSAMIDE] |  |  | 4.1 µM and > 33 µM | > 33
Cc1c(C(=O)c2cccc3ccccc23)c2cccc3c2n1[C@H](CN1CCOCC1)CO3 [WIN-552122] | > 33 | 7.06 |  | 
CC(=O)[C@]1(N)Cc2c(O)c3c(c(O)c2[C@@H](O[C@H]2C[C@H](O)[C@H](O)CO2)C1)C(=O)c1ccccc1C3=O [AMRUBICIN] | 0.33 | > 33 |  | 
OCCNC1CCCc2c1[nH]c1ccc(-c3ccccc3)cc21 (configuration not stated) |  | > 33 |  | 
CCCCCCCCCCCCCCOc1ccc(C(=O)O)o1 [TOFA] | 4.04 | > 33 |  | 
CCCCN(CCCC)CCC(O)c1cc2c(Cl)cc(Cl)cc2c2cc(C(F)(F)F)ccc12 (configuration not stated) [HALOFANTRINE] |  | > 33 |  | 
CCN1CCC(n2cc(CNc3cc(Cl)c4ncc(C#N)c(Nc5ccc(F)c(Cl)c5)c4c3)nn2)CC1 | 16.6 |  |  | 
Cc1c(O)cccc1C(=O)NC(CSc1ccccc1)C(O)CN1CC2CCCCC2CC1C(=O)NC(C)(C)C (configuration not stated) | 14.3 | > 33 |  | 
COc1ccccc1[C@H](Cn1c(=O)n(C(C)(C)C(=O)O)c(=O)c2c(C)c(-c3ncco3)sc21)OC1CCOCC1 [FIRSOCOSTAT] |  | 0.11 |  | 
CN1CCN(CCCN2c3ccccc3Sc3ccc(C(F)(F)F)cc32)CC1 [TRIFLUOPERAZINE HYDROCHLORIDE] |  | > 33 |  | 
Nc1nc(NC[C@H]2CC[C@H](CNS(=O)(=O)c3cccc4ccccc34)CC2)nc2ccccc12 [CGP-71683A] |  | 4.38 |  | 
Cc1cc([N+](=O)[O-])ccc1NS(=O)(=O)c1cc(Cl)ccc1Cl | > 33 | 16.6 |  | 
CCCCOCCOc1ccc(-c2ccc3c(c2)/C=C(/C(=O)Nc2ccc([S@@+]([O-])Cc4cncn4CCC)cc2)CCCN3CC(C)C)cc1 [CENICRIVIROC] | > 33 | 11.7 |  | 
CC(=O)N[C@H](Cc1ccc2ccccc2c1)C(=O)N[C@H](Cc1ccc(Cl)cc1)C(=O)N[C@H](Cc1cccnc1)C(=O)N[C@@H](CO)C(=O)N[C@@H](Cc1ccc(NC(=O)[C@@H]2CC(=O)NC(=O)N2)cc1)C(=O)N[C@H](Cc1ccc(NC(N)=O)cc1)C(=O)N[C@@H](CC(C)C)C(=O)N[C@@H](CCCCNC(C)C)C(=O)N1CCC[C@H]1C(=O)N[C@H](C)C(N)=O [DEGARELIX] (Ac-[d2Nal][dPhe(4-Cl)][d3Pal]S[Phe(4-NH2)](Dihydroorotyl(S))[dPhe(4-NHCONH2)]L[Lys(iPr)]P[dA]-NH2) | 20.7 | > 33 |  | 
Cc1ccc(NC(=O)c2ccc(CN3CCN(C)CC3)cc2)cc1Nc1nc(-c2cccnc2)cs1 [MASITINIB] |  | > 33 |  | 
Cc1c(O)cccc1C(=O)N[C@@H](CSc1ccccc1)[C@H](O)CN1C[C@H]2CCCC[C@H]2C[C@H]1C(=O)NC(C)(C)C [NELFINAVIR MESYLATE] |  | > 33 |  | 

SMILES | IC50 (SARS-CoV-2; [1]) [µM] | CC50 at 48 h (in vitro; [2]) [µM] | IC50 (SARS-CoV-2; vero c1008) | CC50 at 48 h (in vitro; vero c1008, CC50) [µM]
O=C(O)Cc1cccc(OCCCN(Cc2cccc(C(F)(F)F)c2Cl)CC(c2ccccc2)c2ccccc2)c1 |  | > 33 |  | 
CC(C)N1CCN(c2ccc(C(=O)c3c(-c4ccc(O)cc4)sc4cc(O)ccc34)cc2)CC1 |  | > 33 |  | 
O=C(Nc1ccc(Cl)cc1)Nc1ccc(Cl)c(Cl)c1 [TRICLOCARBAN] |  | 3.08 |  | 
Nc1nc2c(ncn2[C@@H]2O[C@H](CO)[C@@H](O)[C@H]2O)c(=S)[nH]1 [THIOGUANOSINE] |  | > 33 |  | 
O=C1C(=Cc2cccnc2)C(=O)c2ccccc21 | > 33 |  |  | 
CC(C)C(=O)OCC(=O)[C@@]12O[C@H](C3CCCCC3)O[C@@H]1C[C@H]1[C@@H]3CCC4=CC(=O)C=C[C@]4(C)[C@H]3[C@@H](O)C[C@@]12C [CICLESONIDE] | > 33 |  |  | 
Oc1c(Cl)cc(Cl)cc1Sc1cc(Cl)cc(Cl)c1O [BITHIONOL] |  | 9.94 |  | 
Cn1cc(-c2ccncc2)c(-c2ccc(OCc3ccc4ccccc4n3)cc2)n1 [MARDEPODECT] |  | > 33 |  | 
Nc1nc(N)c2nc(CNc3ccc(C(=O)N[C@@H](CCC(=O)O)C(=O)O)cc3)cnc2n1 [AMINOPTERIN] |  | 0.03 |  | 
CC[C@@]1([C@H]2O[C@H]([C@H]3O[C@@](O)(CO)[C@H](C)C[C@@H]3C)C[C@H]2C)CC[C@H]([C@@]2(C)CC[C@]3(C[C@H](O)[C@@H](C)[C@@H]([C@H](C)[C@H](OC)[C@@H](C)C(=O)O)O3)O2)O1 [MONENSIN SODIUM] | 3.18 |  |  | 
COc1cc(NCc2ccc3nc(N)nc(N)c3c2C)cc(OC)c1OC [TRIMETREXATE] |  | 1.99 |  | 
CC1(N2CCC(n3c([C@@H]4CCCNC4)nc4ccccc43)CC2)CCCCCCC1 |  | > 33 |  | 
CCN(CC)CCOc1ccc2c(c1)C(=O)c1cc(OCCN(CC)CC)ccc1-2 [TILORONE] |  | 3.08 |  | 
C[C@@H]1C[C@@H]([C@H](O)CC2CC(=O)NC(=O)C2)C(=O)[C@@H](C)C1 [CYCLOHEXIMIDE] |  | 10.2 |  | 
Cn1nc(C(C)(C)C)cc1C(=O)N[C@@H](Cc1cccc(Cl)c1)C(=O)NCC#N |  | 0.03 |  | 
O=C(NCCN1CCC2(CC1)C(=O)NCN2c1cccc(F)c1)c1ccc2ccccc2c1 |  | > 33 |  | 
CN1CCN(CC/C=C2\c3ccccc3Sc3ccc(S(=O)(=O)N(C)C)cc32)CC1 |  | > 33 |  | 
c1cncc(CN2CCC(n3ncc4c(N5CCOCC5)nc(-c5ccc6[nH]ccc6c5)nc43)CC2)c1 |  | 9.55 |  | 

From ChEMBL document CHEMBL4495565, “Cytopathic SARS-Cov2 screening on VERO-E6 cells in a large repurposing effort” (2020)
